Data: PubChem BioAssay AID1963827 (Molecular Pharmacology Branch, DTP, NCI, 2024)
Several values for one entry are separate records, joined by “and”; a condition that tells them apart may be missing. Identical values can stand only once.

Tested on: 994946-033-R-J1-PDC complex spheroid viability
Assay: Anticancer human tumor 994946-033-R-J1-PDC patient-derived melanoma cell line growth inhibition [POLQ]
Details: for viability, T/C: stronger effect = lower value
Procedure: Multicellular complex tumor spheroid response to Polymerase (POL) inhibitors (novobiocin, ART-558, RP6685) in combination with a variety of drugs and investigational agents in selected tumor cell lines
The POL inhibitors (novobiocin, ART-558, and RP6685) were evaluated both individually and in combination with standard of care and investigational anticancer small molecules within a complex spheroid model of solid tumors. . Complex spheroids include a stromal component modeled by human endothelial cells (HUVEC) and fibroblasts modeled by human mesenchymal stem cells (MSCs). The concentration ranges selected for each drug and investigational agent were based upon clinically achievable concentrations if the clinical Cmax of the agent was known.
Compounds. The drugs and investigational agents: novobiocin (NSC847541), ART-558 (NSC835418), RP-6685 (NSC848927), peposertib (NSC802822), ceralasertib (NSC780249), elimusertib (NSC800525), camonsertib (NSC841442), AZD-1390 (NSC803789), olaparib (NSC753686), talazoparib (NSC767125), rucaparib (NSC756644), sotorasib (NSC818433), MRTX-1133 (NSC836407), SN-38 (NSC673596), topotecan (NSC609699), epotoside (NSC141540), doxorubicin (NSC123127), gemcitabine (NSC613327), 5-fluorouracil (NSC19893), paclitaxel (NSC125973), vemurafenib (NSC761431), MSA-2 (NSC828583), SN-011 (NSC837082), adavosertib (NSC754352), prexasertib (NSC758257), carboplatin (NSC241240) and oxaliplatin (NSC266046), were obtained from the National Cancer Institute (NCI) Developmental Therapeutics Program Chemical Repository (21). The FDA-approved anticancer drug set is available from the Developmental Therapeutics Program at https://dtp.cancer.gov/organization/dscb/obtaining/. […] The stock solutions were prepared in dimethyl sulfoxide (DMSO, Sigma-Aldrich, St. Louis, MO, cat. D2650), except for the platinum compounds which were prepared in saline (Quality Biological, Gaithersburg, MD, cat. 114-055-101), at 800-fold the tested concentration and stored at -70 degrees C prior to their use. All drugs and investigational agents were tested over a range starting from a high concentration at or near the clinical Cmax and decreasing in half-log increments. If the clinical Cmax for an agent had not been determined, the highest concentration tested was 10 microM, except for SN-38, which was tested at a high concentration of 1 microM.
Cell Culture. All cells were maintained in an incubator at 37 degrees C and 5% CO2 with 95% humidity. The PDC lines were cultured according to standard operating procedures established by the NCI PDMR (https://pdmr.cancer.gov). Table 3 of the manuscript, lists the cell lines along with the number of the three cell types plated to form the mct-spheroids and media for tumor cell growth. After thawing, all PDC lines, except 997537-175-T-J1-PDC and 415267-285-R-J2-PDC, were cultured in Matrigel-coated flasks prepared with a working solution of 1X Ham's F-12 nutrient mix, without supplementation (Thermo Fisher Scientific, cat. 11765054), 100 U/mL penicillin-streptomycin (Thermo Fisher Scientific, cat. 15140122), and 2.5% Matrigel (Corning Inc., Corning, NY, cat. 354248) for the first three passages. The two PDC lines 997537-175-T-J1-PDC and 415267-285-R-J2-PDC were cultured on uncoated flasks. The 857933-349-R-J2-PDC line was cultured in 6C/Colon 1B media containing advanced DMEM/F-12 (Thermo Fisher Scientific, cat. 12634028), 10 mM HEPES (Thermo Fisher Scientific, cat. 15630080), 1X GlutaMAX supplement (Thermo Fisher Scientific, cat. 35050061), 0.1 mg/mL primocin (InvivoGen, San Diego, CA, cat. ant-pm-2), 10% defined fetal bovine serum, heat inactivated (HyClone Laboratories Inc., Logan, UT, cat. SH30070.03HI), 50% L-WRN conditioned media (ATCC, cat. CRL-3276), 1.25 mM N-Acetyl-L-cysteine (Sigma-Aldrich, cat. A9165), 10 mM nicotinamide (Sigma-Aldrich, cat. N0636), 1X B-27 supplement (Thermo Fisher Scientific, cat. 17504044), 1X N-2 supplement (Thermo Fisher Scientific, cat. […]
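Further: spheroids exposed to drugs for 7 days.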
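Wherever viability, T/C is given: 100% = DMSO vehicle treated spheroids.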

CCc1c2c(nc3ccc(O)cc13)-c1cc3c(c(=O)n1C2)COC(=O)[C@]3(O)CC was tested, and the viability, T/C (compound 0.00316 µM) was 17% and 30.3% and 19.5%, the viability, T/C (compound 0.01 µM) was 6.95% and 12.2% and 10.6% and the viability, T/C (compound 0.0316 µM) was 5.85% and 6.99% and 4.96%. For the same compound, the viability, T/C (compound 0.1 µM) was 3.9% and 5.58% and 5.13%, the viability, T/C (compound 0.316 µM) was 3.05% and 4.94% and 3.67% and the viability, T/C (compound 1 µM) was 1.76% and 2.96% and 1.2%. The IC50 (curve of compound) was less than 0.00316 µM.

C=CCn1c(=O)c2cnc(Nc3ccc(N4CCN(C)CC4)cc3)nc2n1-c1cccc(C(C)(C)O)n1 was tested, and the viability, T/C (compound 0.00316 µM) was 106% and 121% and 99.1%, the viability, T/C (compound 0.01 µM) was 109% and 114% and 99.8% and the viability, T/C (compound 0.0316 µM) was 113% and 106% and 123%. For the same compound, the viability, T/C (compound 0.1 µM) was 105% and 97.1% and 72.5%, the viability, T/C (compound 0.316 µM) was 97.5% and 68.8% and 88.4% and the viability, T/C (compound 1 µM) was 27.4% and 34.9% and 30.9%. The IC50 (curve of compound) was 0.691 µM and 0.608 µM and 0.651 µM.

With O=C(Nc1ccc(O)c(NS(=O)(=O)c2ccc(F)cc2)c1)c1ccc(-c2ccccc2)cc1 the viability, T/C (compound 0.0316 µM) was 68.8% and 116% and 90.9%, the viability, T/C (compound 0.1 µM) was 87.8% and 77.9% and 78.2% and the viability, T/C (compound 0.316 µM) was 83.3% and 91.7% and 96%. For the same compound, the viability, T/C (compound 1 µM) was 80.3% and 100% and 96.6%, the viability, T/C (compound 3.16 µM) was 89.9% and 85.7% and 90.8% and the viability, T/C (compound 10 µM) was 39% and 46.8% and 25.6%. For the same compound, the IC50 (curve of compound) was 7.46 µM and 9.19 µM and 6.49 µM.

CCc1cc2c(N3CCc4c(cc(Cn5ccnc5)cc4-c4cn(C)nc4C(F)(F)F)C3=O)ccnc2c(OC)n1 + Nc1ccc(C#CCN(C(=O)Cc2ncc(C(F)(F)F)cc2C(F)(F)F)c2ccc(F)cc2)nn1 was tested, and the IC50 (curve of first compound, second compound 0.0316 µM) was greater than 10 µM, the IC50 (curve of first compound, second compound 0.1 µM) was greater than 10 µM and the IC50 (curve of first compound, second compound 0.316 µM) was greater than 10 µM. It also gave an IC50 (curve of first compound, second compound 1 µM) greater than 10 µM, an IC50 (curve of first compound, second compound 3.16 µM) greater than 10 µM and an IC50 (curve of first compound, second compound 10 µM) greater than 10 µM. For the same compound, the viability, T/C (second compound 0.0316 µM, first compound 0.0316 µM) was 51.5%, the viability, T/C (second compound 0.0316 µM, first compound 0.1 µM) was 79.4% and the viability, T/C (second compound 0.0316 µM, first compound 0.316 µM) was 82%. It also gave a viability, T/C (second compound 0.0316 µM, first compound 1 µM) of 88.2%, a viability, T/C (second compound 0.0316 µM, first compound 3.16 µM) of 79.6% and a viability, T/C (second compound 0.0316 µM, first compound 10 µM) of 79%. The viability, T/C (second compound 0.1 µM, first compound 0.0316 µM) was 101%, the viability, T/C (second compound 0.1 µM, first compound 0.1 µM) was 87.7% and the viability, T/C (second compound 0.1 µM, first compound 0.316 µM) was 88.6%. For the same compound, the viability, T/C (second compound 0.1 µM, first compound 1 µM) was 76.8%, the viability, T/C (second compound 0.1 µM, first compound 3.16 µM) was 73.8% and the viability, T/C (second compound 0.1 µM, first compound 10 µM) was 81.4%. For the same compound, the viability, T/C (second compound 0.316 µM, first compound 0.0316 µM) was 89.3%, the viability, T/C (second compound 0.316 µM, first compound 0.1 µM) was 97.6% and the viability, T/C (second compound 0.316 µM, first compound 0.316 µM) was 78.4%. It also gave a viability, T/C (second compound 0.316 µM, first compound 1 µM) of 70.6%, a viability, T/C (second compound 0.316 µM, first compound 3.16 µM) of 79.8% and a viability, T/C (second compound 0.316 µM, first compound 10 µM) of 63.9%. It also gave a viability, T/C (second compound 1 µM, first compound 0.0316 µM) of 98.9%, a viability, T/C (second compound 1 µM, first compound 0.1 µM) of 62.2% and a viability, T/C (second compound 1 µM, first compound 0.316 µM) of 85.1%. For the same compound, the viability, T/C (second compound 1 µM, first compound 1 µM) was 75%, the viability, T/C (second compound 1 µM, first compound 3.16 µM) was 86.7% and the viability, T/C (second compound 1 µM, first compound 10 µM) was 87.4%. It also gave a viability, T/C (second compound 3.16 µM, first compound 0.0316 µM) of 75.9%, a viability, T/C (second compound 3.16 µM, first compound 0.1 µM) of 78% and a viability, T/C (second compound 3.16 µM, first compound 0.316 µM) of 66.9%. For the same compound, the viability, T/C (second compound 3.16 µM, first compound 1 µM) was 79.4%, the viability, T/C (second compound 3.16 µM, first compound 3.16 µM) was 89.2% and the viability, T/C (second compound 3.16 µM, first compound 10 µM) was 66.7%. For the same compound, the viability, T/C (second compound 10 µM, first compound 0.0316 µM) was 101%, the viability, T/C (second compound 10 µM, first compound 0.1 µM) was 98.2% and the viability, T/C (second compound 10 µM, first compound 0.316 µM) was 102%. For the same compound, the viability, T/C (second compound 10 µM, first compound 1 µM) was 89.8%, the viability, T/C (second compound 10 µM, first compound 3.16 µM) was 80.8% and the viability, T/C (second compound 10 µM, first compound 10 µM) was 70.8%.
